28 molecules from patent publication US9718804B2, “GSK-3 inhibitors” (BRISTOL-MYERS SQUIBB COMPANY, priority 2013, dated 2017) can be followed below.

Read-outs that look alike come from different tables or passages of the source.

One assay has as its target GSK3β (Homo sapiens, UniProt P49841). The experiment in a line: GSK3β kinase assay (Caliper LabChip, fluoresceinated peptide substrate). The format is biochemical. The method in brief: (§1)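 RT, 20 h incubation; EDTA stop (35 mM). Microfluidic electrophoretic separation of product vs. substrate.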
The next assay concerns the target GSK3α (Homo sapiens, UniProt P49840). The experiment in a line: GSK3α kinase assay (Caliper LabChip, fluoresceinated peptide substrate). The format is biochemical. The gist of the method: as §1
A further assay concerns pTau. The experiment in a line: pTau assay (no method described). The format is cell-based.
Setting [1] is: first value of the cell, 250 pM enzyme, 20 uM ATP, 20 hours at room temperature, read-out: GSK3β/α (nM): GSK3β IC50.

GSK3α, sequence (P49840 whole entry, species assumed): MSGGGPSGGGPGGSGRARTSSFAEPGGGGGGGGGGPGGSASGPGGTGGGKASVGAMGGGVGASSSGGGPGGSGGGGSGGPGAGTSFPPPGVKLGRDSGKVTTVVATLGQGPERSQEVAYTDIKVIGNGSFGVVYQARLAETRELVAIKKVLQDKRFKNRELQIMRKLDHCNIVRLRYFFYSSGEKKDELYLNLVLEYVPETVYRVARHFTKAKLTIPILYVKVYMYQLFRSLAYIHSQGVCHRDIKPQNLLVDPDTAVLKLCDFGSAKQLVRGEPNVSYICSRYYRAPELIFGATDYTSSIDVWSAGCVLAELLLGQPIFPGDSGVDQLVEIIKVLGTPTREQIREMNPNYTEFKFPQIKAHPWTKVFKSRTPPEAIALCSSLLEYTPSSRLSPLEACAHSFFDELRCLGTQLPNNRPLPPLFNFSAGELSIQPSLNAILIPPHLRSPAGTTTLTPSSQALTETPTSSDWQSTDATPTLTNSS
GSK3β, sequence (P49841 whole entry, species assumed): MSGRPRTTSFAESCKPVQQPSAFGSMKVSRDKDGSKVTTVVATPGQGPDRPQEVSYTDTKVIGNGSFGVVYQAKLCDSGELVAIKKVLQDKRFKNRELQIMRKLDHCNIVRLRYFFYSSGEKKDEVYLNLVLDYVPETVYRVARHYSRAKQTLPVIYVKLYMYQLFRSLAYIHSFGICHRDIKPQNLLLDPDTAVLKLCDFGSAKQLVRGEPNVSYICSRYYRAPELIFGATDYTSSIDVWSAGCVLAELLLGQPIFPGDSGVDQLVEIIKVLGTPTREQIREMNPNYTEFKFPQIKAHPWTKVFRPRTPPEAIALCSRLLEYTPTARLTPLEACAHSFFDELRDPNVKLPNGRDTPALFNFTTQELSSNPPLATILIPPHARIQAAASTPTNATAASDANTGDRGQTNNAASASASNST

Regarding `CC(C)(C)COc1cc(F)ncc1NC(=O)c1ccnc(Nc2ccc(Cl)cn2)c1` [Example 112, 2-((5-Chloropyridin-2-yl)amino)-N-(6-fluoro-4-(neopentyloxy)pyridin-3-yl)isonicotinamide], the IC50 at GSK3β (setting [1]) was found to be 5 nM; against GSK3α, 3 nM; in the assay with pTau, 850 nM.

With `CCC1(c2cc(Cl)ncc2NC(=O)c2ccnc(Nc3ccc(F)cn3)c2)OCCO1` [Example 113, N-(6-Chloro-4-(2-ethyl-1,3-dioxolan-2-yl)pyridin-3-yl)-2-((5-fluoropyridin-2-yl)amino)isonicotinamide], the IC50 turned out to be 1.7 nM on GSK3β (setting [1]), 0.04 nM on GSK3α and 14 nM in the assay with pTau.

Turning to `O=C(Nc1cnc(F)cc1OCC(F)F)c1ccnc(Nc2ccc(F)cn2)c1` [Example 114, N-(4-(2,2-Difluoroethoxy)-6-fluoropyridin-3-yl)-2-((5-fluoropyridin-2-yl)amino)isonicotinamide], the IC50 on GSK3β (setting [1]) came to 4.4 nM; against GSK3α it was 1.5 nM; with pTau it was 220 nM.

Consider `O=C(Nc1cnccc1-c1ccccc1)c1ccnc(Nc2cc3ccccc3cn2)c1` [Example 115, 2-(Isoquinolin-3-ylamino)-N-(4-phenylpyridin-3-yl)isonicotinamide], for which the IC50 amounted to 0.97 nM at GSK3β (setting [1]), 0.65 nM at GSK3α and 297 nM in the assay on pTau.

On to `O=C(Nc1cnccc1-c1ccccc1)c1ccnc(Nc2ccc3ccccc3n2)c1` [Example 116, N-(4-Phenylpyridin-3-yl)-2-(quinolin-2-ylamino)isonicotinamide], for which the IC50 at GSK3β (setting [1]) turned out to be 7.8 nM; against GSK3α, 3.9 nM; in the assay with pTau, 610 nM.

As for `O=C(Nc1cncc(F)c1-c1ccccc1)c1ccnc(Nc2ccc(C(F)(F)F)cn2)c1` [Example 117, N-(5-Fluoro-4-phenylpyridin-3-yl)-2-((5-(trifluoromethyl)pyridin-2-yl)amino)isonicotinamide], the results for the IC50 on GSK3β (setting [1]), on GSK3α and in the assay with pTau were 3 nM, 1.4 nM and 254 nM, respectively.

Consider `O=C(Nc1cncc(-n2ccc(C(F)(F)F)n2)c1)c1ccnc(Nc2ccc(C(F)(F)F)cn2)c1` [Example 120, N-(5-(3-(Trifluoromethyl)-1H-pyrazol-1-yl)pyridin-3-yl)-2-((5-(trifluoromethyl)pyridin-2-yl)amino)isonicotinamide], for which the IC50 at GSK3β (setting [1]) was found to be 29 nM; on GSK3α it was 14 nM; with pTau, 1500 nM.

Consider `O=C(Nc1cncc(N2CCOCC2)c1)c1ccnc(Nc2ccc(C(F)(F)F)cn2)c1` [Example 121, N-(5-Morpholinopyridin-3-yl)-2-((5-(trifluoromethyl)pyridin-2-yl)amino)isonicotinamide], for which the IC50 stood at 25 nM on GSK3β (setting [1]), 12 nM at GSK3α and 1500 nM with pTau.

With `N#Cc1cnn(-c2cncc(NC(=O)c3ccnc(Nc4cccc(C(F)(F)F)n4)c3)c2)c1` [Example 122, N-(5-(4-Cyano-1H-pyrazol-1-yl)pyridin-3-yl)-2-((6-(trifluoromethyl)pyridin-2-yl)amino)isonicotinamide], the IC50 is 6.9 nM on GSK3β (setting [1]), 2.2 nM against GSK3α and 2000 nM in the assay on pTau.

As to `O=C(Nc1cncc(OCC(F)(F)F)c1)c1ccnc(Nc2cccc(C(F)(F)F)n2)c1` [Example 123, N-(5-(2,2,2-Trifluoroethoxy)pyridin-3-yl)-2-((6-(trifluoromethyl)pyridin-2-yl)amino)isonicotinamide], the results for the IC50 on GSK3β, on GSK3α and in the assay with pTau were 7.4 nM, 3.2 nM and 520 nM, respectively.

In the case of `O=C(Nc1cncc(OCC2CC2)c1)c1ccnc(Nc2cccc(C(F)(F)F)n2)c1` [Example 124, N-(5-(Cyclopropylmethoxy)pyridin-3-yl)-2-((6-(trifluoromethyl)pyridin-2-yl)amino)isonicotinamide], the IC50 at GSK3β (setting [1]) worked out at 9.4 nM; against GSK3α, 3.5 nM; in the assay with pTau, 3600 nM.

`CC1(COc2cncc(NC(=O)c3ccnc(Nc4cccc(C(F)(F)F)n4)c3)c2)CC1` [Example 125, N-(5-((1-Methylcyclopropyl)methoxy)pyridin-3-yl)-2-((6-(trifluoromethyl)pyridin-2-yl)amino)isonicotinamide]: the figures for the IC50 against GSK3β, on GSK3α and in the assay on pTau were 12 nM, 3.8 nM and 2200 nM, respectively.

Consider `CC1CC1COc1cncc(NC(=O)c2ccnc(Nc3cccc(C(F)(F)F)n3)c2)c1` (stereo not drawn) [Example 126, N-(5-((2-Methylcyclopropyl)methoxy)pyridin-3-yl)-2-((6-(trifluoromethyl)pyridin-2-yl)amino)isonicotinamide], for which the IC50 at GSK3β (setting [1]) was 9.7 nM; against GSK3α, 4.8 nM; with pTau, 3200 nM.

Turning to `O=C(Nc1cncc(-c2ccccc2F)c1)c1ccnc(Nc2ccc(C(F)(F)F)cn2)c1` [Example 127, N-(5-(2-Fluorophenyl)pyridin-3-yl)-2-((5-(trifluoromethyl)pyridin-2-yl)amino)isonicotinamide], the IC50 on GSK3β (setting [1]) stood at 11 nM; on GSK3α, 6 nM; in the assay on pTau it was 1750 nM.

`O=C(Nc1cncc(-c2ccccc2Cl)c1)c1ccnc(Nc2ccc(C(F)(F)F)cn2)c1` [Example 128, N-(5-(2-Chlorophenyl)pyridin-3-yl)-2-((5-(trifluoromethyl)pyridin-2-yl)amino)isonicotinamide]: the results for the IC50 at GSK3β (setting [1]), at GSK3α and in the assay with pTau were 12 nM, 16 nM and 2180 nM, respectively.

As for `O=C(Nc1cncc(-c2cc(F)ccc2F)c1)c1ccnc(Nc2ccc(C(F)(F)F)cn2)c1` [Example 129, N-(5-(2,5-Difluorophenyl)pyridin-3-yl)-2-((5-(trifluoromethyl)pyridin-2-yl)amino)isonicotinamide], the values for the IC50 at GSK3β (setting [1]), at GSK3α and in the assay on pTau were 18 nM, 9.8 nM and 2100 nM, respectively.

In the case of `O=C(Nc1cncc(-c2cccc(F)c2F)c1)c1ccnc(Nc2ccc(C(F)(F)F)cn2)c1` [Example 130, N-(5-(2,3-Difluorophenyl)pyridin-3-yl)-2-((5-(trifluoromethyl)pyridin-2-yl)amino)isonicotinamide], the IC50 is 42 nM at GSK3β (setting [1]), 20 nM against GSK3α and 2600 nM in the assay with pTau.

For the molecule `O=C(Nc1cncc(-c2ccccc2F)c1)c1ccnc(Nc2ccc(F)cn2)c1` [Example 131, N-(5-(2-Fluorophenyl)pyridin-3-yl)-2-((5-fluoropyridin-2-yl)amino)isonicotinamide], the IC50 on GSK3β was determined as 6.1 nM; against GSK3α, 3 nM; in the assay with pTau, 640 nM.

Turning to `Cc1ccnc(Nc2cc(C(=O)Nc3cncc(-c4ccccc4F)c3)ccn2)c1` [Example 132, N-(5-(2-Fluorophenyl)pyridin-3-yl)-2-((4-methylpyridin-2-yl)amino)isonicotinamide], the IC50 amounted to 9 nM against GSK3β, 6.2 nM at GSK3α and 1900 nM in the assay with pTau.

Consider `Cc1ccc(Nc2cc(C(=O)Nc3cncc(-c4ccccc4F)c3)ccn2)nc1` [Example 133, N-(5-(2-Fluorophenyl)pyridin-3-yl)-2-((5-methylpyridin-2-yl)amino)isonicotinamide], for which the values for the IC50 on GSK3β (setting [1]), at GSK3α and in the assay on pTau were 7.3 nM, 3.4 nM and 1400 nM, respectively.

On to `O=C(Nc1cncc(-c2ccccc2F)c1)c1ccnc(Nc2cccc(C(F)(F)F)n2)c1` [Example 134, N-(5-(2-Fluorophenyl)pyridin-3-yl)-2-((6-(trifluoromethyl)pyridin-2-yl)amino)isonicotinamide], for which the values for the IC50 at GSK3β (setting [1]), against GSK3α and in the assay on pTau were 3.9 nM, 1.5 nM and 470 nM, respectively.

Turning to `N#Cc1ccc(Nc2cc(C(=O)Nc3cncc(-c4ccccc4F)c3)ccn2)nc1` [Example 135, 2-((5-Cyanopyridin-2-yl)amino)-N-(5-(2-fluorophenyl)pyridin-3-yl)isonicotinamide], the results for the IC50 on GSK3β (setting [1]), on GSK3α and with pTau were 3 nM, 1.7 nM and 670 nM, respectively.

In the case of `O=C(Nc1cncc(-c2ccccc2F)c1)c1ccnc(Nc2cccc(F)n2)c1` [Example 136, N-(5-(2-Fluorophenyl)pyridin-3-yl)-2-((6-fluoropyridin-2-yl)amino)isonicotinamide], the IC50 at GSK3β (setting [1]) stood at 11 nM; at GSK3α it was 2.7 nM; with pTau, 1100 nM.

As for `Cc1cccc(Nc2cc(C(=O)Nc3cncc(-c4ccccc4F)c3)ccn2)n1` [Example 137, N-(5-(2-Fluorophenyl)pyridin-3-yl)-2-((6-methylpyridin-2-yl)amino)isonicotinamide], the IC50 turned out to be 7.1 nM on GSK3β (setting [1]), 5.6 nM against GSK3α and 2700 nM with pTau.

As to `CCc1cccc(Nc2cc(C(=O)Nc3cncc(-c4ccccc4F)c3)ccn2)n1` [Example 138, N-(5-(2-Fluorophenyl)pyridin-3-yl)-2-((6-ethylpyridin-2-yl)amino)isonicotinamide], the IC50 at GSK3β (setting [1]) was 3.5 nM; at GSK3α it was 2.2 nM; in the assay with pTau, 4700 nM.

`COc1cccc(Nc2cc(C(=O)Nc3cncc(-c4ccccc4F)c3)ccn2)n1` [Example 139, N-(5-(2-Fluorophenyl)pyridin-3-yl)-2-((6-methoxylpyridin-2-yl)amino)isonicotinamide]: the figures for the IC50 on GSK3β (setting [1]), on GSK3α and in the assay with pTau were 5.4 nM, 3.2 nM and 1300 nM, respectively.

For the molecule `O=C(Nc1cncc(-c2ccccc2F)c1)c1ccnc(Nc2ccc(N3CCOCC3)cn2)c1` [Example 140, N-(5-(2-Fluorophenyl)pyridin-3-yl)-2-((5-morpholinopyridin-2-yl)amino)isonicotinamide], the IC50 at GSK3β (setting [1]) came out at 6.7 nM; against GSK3α, 10 nM; in the assay with pTau it was 980 nM.

`COc1ccc(Nc2cc(C(=O)Nc3cncc(-c4ccccc4F)c3)ccn2)nc1` [Example 141, N-(5-(2-Fluorophenyl)pyridin-3-yl)-2-((5-methoxylpyridin-2-yl)amino)isonicotinamide]: the IC50 came out at 3.5 nM at GSK3β (setting [1]), 1.8 nM against GSK3α and 680 nM in the assay with pTau.
